Results from ChEMBL document CHEMBL3991601, “The target landscape of clinical kinase drugs” (Science, 2017).
pKd: −log10 of the molar value. Activity calls are given as the source filed them. Rule as the data show it, for most assays here: actives have a measured Kd and inactives only a lower limit.

Legend:
[1] = biological target: Rho-associated protein kinase 2 (Homo sapiens, UniProt O75116)
[2] = biological target: Serine/threonine-protein kinase 16 (Homo sapiens, UniProt O75716)
[3] = biological target: T1, Dual specificity mitogen-activated protein kinase kinase 5 (Homo sapiens, UniProt Q13163)
T1 sequence (Q13163 whole entry): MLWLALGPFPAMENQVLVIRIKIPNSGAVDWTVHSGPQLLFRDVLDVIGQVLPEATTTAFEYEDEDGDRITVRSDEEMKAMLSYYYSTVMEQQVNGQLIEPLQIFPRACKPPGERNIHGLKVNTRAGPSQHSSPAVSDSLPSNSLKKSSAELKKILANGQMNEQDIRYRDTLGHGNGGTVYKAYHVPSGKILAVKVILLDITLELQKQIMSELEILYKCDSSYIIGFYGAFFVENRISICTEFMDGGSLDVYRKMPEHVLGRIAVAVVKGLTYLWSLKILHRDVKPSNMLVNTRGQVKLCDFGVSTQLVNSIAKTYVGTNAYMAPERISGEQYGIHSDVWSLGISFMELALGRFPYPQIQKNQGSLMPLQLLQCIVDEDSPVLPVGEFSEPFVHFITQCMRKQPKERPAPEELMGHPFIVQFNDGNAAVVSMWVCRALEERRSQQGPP

[4] = biological target: Receptor-interacting serine/threonine-protein kinase 2 (Homo sapiens, UniProt O43353)
Chain of Receptor-interacting serine/threonine-protein kinase 2 (O43353 whole entry): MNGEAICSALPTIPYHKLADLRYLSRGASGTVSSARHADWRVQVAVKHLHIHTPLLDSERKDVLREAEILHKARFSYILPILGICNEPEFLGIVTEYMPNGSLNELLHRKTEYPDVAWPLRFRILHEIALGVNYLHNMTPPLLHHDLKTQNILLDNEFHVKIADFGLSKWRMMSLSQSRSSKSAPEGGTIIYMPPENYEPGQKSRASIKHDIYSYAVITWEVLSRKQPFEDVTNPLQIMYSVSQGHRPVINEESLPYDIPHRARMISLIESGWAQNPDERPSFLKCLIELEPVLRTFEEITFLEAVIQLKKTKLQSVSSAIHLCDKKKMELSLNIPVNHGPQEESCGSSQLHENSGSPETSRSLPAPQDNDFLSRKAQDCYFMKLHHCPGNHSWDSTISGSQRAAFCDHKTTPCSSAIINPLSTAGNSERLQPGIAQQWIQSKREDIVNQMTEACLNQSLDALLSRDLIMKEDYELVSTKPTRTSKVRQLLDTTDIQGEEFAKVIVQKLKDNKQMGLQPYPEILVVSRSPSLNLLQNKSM

Ephrin type-B receptor 2 = biological target: T2, Ephrin type-B receptor 2 (Homo sapiens, UniProt P29323)
T2 sequence (P29323 whole entry): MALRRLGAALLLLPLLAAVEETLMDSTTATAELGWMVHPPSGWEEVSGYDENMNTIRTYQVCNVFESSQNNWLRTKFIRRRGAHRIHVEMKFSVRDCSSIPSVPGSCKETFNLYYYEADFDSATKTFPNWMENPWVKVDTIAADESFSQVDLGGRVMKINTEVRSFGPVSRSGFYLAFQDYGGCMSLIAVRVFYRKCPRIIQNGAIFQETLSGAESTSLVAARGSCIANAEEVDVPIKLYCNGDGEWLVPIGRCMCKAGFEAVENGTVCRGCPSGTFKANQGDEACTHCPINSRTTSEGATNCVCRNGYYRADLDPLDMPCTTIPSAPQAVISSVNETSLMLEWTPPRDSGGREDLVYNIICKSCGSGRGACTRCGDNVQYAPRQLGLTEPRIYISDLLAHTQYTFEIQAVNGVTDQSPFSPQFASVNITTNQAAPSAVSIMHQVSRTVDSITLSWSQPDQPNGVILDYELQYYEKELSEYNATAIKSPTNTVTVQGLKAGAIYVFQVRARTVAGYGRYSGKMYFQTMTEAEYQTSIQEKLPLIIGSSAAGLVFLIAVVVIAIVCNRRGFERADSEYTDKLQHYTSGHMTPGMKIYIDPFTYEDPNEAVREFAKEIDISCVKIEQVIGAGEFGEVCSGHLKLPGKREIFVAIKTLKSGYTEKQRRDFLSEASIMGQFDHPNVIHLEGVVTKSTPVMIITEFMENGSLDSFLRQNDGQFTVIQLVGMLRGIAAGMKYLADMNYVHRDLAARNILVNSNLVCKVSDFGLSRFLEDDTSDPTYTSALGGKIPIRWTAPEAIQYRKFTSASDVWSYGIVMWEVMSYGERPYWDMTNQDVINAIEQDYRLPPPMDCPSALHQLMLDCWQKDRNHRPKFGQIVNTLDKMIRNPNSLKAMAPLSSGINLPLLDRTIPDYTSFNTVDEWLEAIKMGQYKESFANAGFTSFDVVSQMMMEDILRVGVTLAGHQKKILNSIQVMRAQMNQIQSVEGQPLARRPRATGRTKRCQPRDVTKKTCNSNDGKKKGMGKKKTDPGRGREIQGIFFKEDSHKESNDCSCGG

[5] = biological target: T3, Dual specificity mitogen-activated protein kinase kinase 3 (Homo sapiens, UniProt P46734)
T3 sequence (P46734 whole entry): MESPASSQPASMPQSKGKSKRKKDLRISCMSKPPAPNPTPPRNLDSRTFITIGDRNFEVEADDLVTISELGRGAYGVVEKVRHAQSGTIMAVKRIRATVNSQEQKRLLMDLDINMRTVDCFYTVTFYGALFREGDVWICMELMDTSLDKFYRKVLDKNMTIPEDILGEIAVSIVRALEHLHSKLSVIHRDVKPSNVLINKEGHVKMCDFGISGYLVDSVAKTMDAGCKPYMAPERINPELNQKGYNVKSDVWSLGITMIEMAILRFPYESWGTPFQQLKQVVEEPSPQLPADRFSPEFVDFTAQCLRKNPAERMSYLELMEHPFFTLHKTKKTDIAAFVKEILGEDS

[6] = biological target: Dual specificity protein kinase CLK1 (Homo sapiens, UniProt P49759)
Chain of Dual specificity protein kinase CLK1 (P49759 whole entry): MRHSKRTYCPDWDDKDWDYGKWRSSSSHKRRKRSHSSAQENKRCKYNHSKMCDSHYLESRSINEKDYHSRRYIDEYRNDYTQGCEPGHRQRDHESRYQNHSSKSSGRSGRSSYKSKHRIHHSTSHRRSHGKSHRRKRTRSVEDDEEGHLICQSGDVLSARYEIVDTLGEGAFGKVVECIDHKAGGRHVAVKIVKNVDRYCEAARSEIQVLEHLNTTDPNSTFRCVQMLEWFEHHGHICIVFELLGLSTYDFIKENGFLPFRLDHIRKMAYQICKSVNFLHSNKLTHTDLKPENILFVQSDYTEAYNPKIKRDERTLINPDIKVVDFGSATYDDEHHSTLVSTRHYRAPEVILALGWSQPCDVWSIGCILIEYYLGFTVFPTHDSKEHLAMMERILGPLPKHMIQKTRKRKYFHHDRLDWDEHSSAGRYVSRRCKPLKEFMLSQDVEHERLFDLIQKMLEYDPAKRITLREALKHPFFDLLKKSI

[7] = biological target: Insulin-like growth factor 1 receptor (Homo sapiens, UniProt P08069)
Chain of Insulin-like growth factor 1 receptor (P08069 31-736 limits assumed): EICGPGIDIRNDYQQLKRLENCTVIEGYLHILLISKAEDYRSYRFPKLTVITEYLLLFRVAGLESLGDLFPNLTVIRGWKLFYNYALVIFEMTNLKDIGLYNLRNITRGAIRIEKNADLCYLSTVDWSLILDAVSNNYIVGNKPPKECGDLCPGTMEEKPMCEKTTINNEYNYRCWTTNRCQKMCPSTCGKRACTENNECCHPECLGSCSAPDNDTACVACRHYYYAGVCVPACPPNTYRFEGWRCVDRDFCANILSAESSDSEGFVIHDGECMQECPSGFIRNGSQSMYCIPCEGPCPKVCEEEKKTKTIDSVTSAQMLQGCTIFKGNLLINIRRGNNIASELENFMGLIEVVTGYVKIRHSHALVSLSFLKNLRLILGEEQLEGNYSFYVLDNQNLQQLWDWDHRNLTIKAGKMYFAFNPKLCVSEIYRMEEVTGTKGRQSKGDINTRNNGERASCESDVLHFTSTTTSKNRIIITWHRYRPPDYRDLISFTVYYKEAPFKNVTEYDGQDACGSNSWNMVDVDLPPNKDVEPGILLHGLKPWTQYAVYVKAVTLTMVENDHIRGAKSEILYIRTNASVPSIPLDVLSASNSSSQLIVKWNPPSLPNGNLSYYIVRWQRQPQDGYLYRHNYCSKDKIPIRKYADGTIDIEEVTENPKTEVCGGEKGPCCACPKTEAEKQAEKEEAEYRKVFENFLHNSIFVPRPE
Chain of Insulin-like growth factor 1 receptor (P08069 741-1367 limits assumed): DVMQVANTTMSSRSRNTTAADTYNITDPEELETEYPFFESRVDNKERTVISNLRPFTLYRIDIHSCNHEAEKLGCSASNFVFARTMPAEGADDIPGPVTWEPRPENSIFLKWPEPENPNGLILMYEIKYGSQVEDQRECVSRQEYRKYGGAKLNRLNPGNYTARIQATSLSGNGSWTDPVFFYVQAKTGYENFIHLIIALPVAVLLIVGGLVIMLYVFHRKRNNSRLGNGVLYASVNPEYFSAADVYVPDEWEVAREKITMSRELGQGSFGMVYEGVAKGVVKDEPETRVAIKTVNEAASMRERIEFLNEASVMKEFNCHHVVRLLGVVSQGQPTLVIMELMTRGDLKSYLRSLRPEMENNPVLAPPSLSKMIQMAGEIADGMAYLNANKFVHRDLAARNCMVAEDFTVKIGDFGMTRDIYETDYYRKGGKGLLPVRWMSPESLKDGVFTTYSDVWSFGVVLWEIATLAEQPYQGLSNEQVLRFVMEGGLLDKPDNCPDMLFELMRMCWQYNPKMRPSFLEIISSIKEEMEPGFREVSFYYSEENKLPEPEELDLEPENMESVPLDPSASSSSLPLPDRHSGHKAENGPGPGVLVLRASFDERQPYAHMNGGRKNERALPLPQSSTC

[8] = biological target: T4, Inhibitor of nuclear factor kappa-B kinase subunit epsilon (Homo sapiens, UniProt Q14164)
T4 sequence (Q14164 whole entry): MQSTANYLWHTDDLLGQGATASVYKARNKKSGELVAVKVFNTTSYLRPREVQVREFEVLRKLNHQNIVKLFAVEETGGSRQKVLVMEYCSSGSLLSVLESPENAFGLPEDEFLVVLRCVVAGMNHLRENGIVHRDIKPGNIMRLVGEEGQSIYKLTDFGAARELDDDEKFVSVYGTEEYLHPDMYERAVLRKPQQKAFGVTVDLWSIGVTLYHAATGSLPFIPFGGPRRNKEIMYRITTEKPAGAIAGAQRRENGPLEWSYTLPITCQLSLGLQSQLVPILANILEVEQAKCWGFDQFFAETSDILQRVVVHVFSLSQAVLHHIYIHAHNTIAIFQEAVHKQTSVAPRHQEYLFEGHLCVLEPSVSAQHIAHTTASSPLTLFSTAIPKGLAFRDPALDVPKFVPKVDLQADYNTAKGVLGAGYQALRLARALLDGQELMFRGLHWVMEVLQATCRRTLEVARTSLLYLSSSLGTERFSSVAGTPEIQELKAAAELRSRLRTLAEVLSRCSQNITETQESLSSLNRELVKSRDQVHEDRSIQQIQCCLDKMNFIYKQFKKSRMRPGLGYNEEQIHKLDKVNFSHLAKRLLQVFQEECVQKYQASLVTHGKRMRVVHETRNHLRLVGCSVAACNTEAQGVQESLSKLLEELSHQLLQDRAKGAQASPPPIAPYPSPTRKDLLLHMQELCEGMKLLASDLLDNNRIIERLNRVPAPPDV
Also: in the data inactive means no Kd found up to 30 µM.

Chain of Rho-associated protein kinase 2 (O75116 whole entry): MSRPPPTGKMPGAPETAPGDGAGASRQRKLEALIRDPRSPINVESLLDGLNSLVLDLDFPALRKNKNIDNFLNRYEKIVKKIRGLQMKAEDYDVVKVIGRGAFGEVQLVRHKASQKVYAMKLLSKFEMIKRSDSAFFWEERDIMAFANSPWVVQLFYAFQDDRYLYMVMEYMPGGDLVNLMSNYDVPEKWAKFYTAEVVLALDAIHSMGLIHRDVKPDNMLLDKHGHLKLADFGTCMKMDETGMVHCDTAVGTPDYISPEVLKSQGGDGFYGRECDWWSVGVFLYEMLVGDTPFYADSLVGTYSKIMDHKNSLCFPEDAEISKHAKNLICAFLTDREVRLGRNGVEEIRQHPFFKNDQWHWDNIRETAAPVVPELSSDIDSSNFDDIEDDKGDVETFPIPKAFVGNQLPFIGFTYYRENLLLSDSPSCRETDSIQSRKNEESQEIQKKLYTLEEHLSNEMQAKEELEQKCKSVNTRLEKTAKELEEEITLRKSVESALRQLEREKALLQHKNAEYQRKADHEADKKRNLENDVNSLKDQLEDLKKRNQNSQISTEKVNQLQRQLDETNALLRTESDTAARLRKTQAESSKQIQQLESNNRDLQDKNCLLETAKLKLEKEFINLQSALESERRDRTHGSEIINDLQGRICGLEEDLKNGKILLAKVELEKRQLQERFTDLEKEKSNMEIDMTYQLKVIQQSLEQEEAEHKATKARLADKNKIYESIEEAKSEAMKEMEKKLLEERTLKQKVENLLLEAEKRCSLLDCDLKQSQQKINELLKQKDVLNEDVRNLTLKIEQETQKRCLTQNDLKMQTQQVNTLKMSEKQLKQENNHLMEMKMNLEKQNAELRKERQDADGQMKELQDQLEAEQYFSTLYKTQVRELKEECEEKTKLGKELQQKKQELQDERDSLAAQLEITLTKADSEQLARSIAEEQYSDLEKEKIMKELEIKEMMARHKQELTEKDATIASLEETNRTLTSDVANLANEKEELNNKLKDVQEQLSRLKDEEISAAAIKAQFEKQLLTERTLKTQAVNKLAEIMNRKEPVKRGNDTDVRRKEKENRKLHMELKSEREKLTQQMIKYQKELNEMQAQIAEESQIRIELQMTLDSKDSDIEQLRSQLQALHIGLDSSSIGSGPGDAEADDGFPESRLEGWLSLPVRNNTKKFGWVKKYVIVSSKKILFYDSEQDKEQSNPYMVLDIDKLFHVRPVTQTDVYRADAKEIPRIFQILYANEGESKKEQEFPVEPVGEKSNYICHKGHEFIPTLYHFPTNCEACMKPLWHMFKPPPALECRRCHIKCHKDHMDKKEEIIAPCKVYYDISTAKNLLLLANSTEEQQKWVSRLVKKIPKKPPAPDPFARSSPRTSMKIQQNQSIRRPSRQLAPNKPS
Chain of Serine/threonine-protein kinase 16 (O75716 whole entry): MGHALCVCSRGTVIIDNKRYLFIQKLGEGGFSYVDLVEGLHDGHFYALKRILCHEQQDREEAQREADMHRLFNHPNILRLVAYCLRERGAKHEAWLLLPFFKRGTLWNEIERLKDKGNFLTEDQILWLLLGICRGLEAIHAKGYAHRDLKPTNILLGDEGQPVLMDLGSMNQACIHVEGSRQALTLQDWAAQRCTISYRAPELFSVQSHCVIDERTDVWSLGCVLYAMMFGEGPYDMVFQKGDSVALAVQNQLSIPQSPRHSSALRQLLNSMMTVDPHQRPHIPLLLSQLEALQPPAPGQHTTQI

Structure (SMILES) | Kd [1] | Kd [2] | Kd [3] | Kd [4] | Kd (Ephrin type-B receptor 2) | Kd [5] | Kd [6] | Kd [7] | Kd [8] | pKd [3] | pKd [6]
COc1cc2nccc(Oc3ccc(NC(=O)C4(C(=O)Nc5ccc(F)cc5)CC4)cc3)c2cc1OC [CABOZANTINIB] | > 30 µM (inactive) | > 30 µM (inactive) | 2.39 µM (active) | 0.767 µM (active) | > 30 µM (inactive) | > 30 µM (inactive) | > 30 µM (inactive) | > 30 µM (inactive) | > 30 µM (inactive) | – | –
O=C(Nc1ccc(OC(F)(F)F)cc1)c1sccc1NCc1ccnc2ccccc12 [OSI-930] | > 30 µM (inactive) | > 30 µM (inactive) | > 30 µM (inactive) | > 30 µM (inactive) | > 30 µM (inactive) | > 30 µM (inactive) | > 30 µM (inactive) | > 30 µM (inactive) | > 30 µM (inactive) | – | –
Cc1cc(Nc2nc(N[C@@H](C)c3ncc(F)cn3)ncc2Cl)n[nH]1 [AZD-1480] | > 30 µM (inactive) | > 30 µM (inactive) | > 30 µM (inactive) | > 30 µM (inactive) | > 30 µM (inactive) | > 30 µM (inactive) | > 30 µM (inactive) | > 30 µM (inactive) | > 30 µM (inactive) | – | –
COc1cccc(Nc2ncnn3ccc(CN4CC[C@@H](N)[C@H](O)C4)c23)c1 [BMS-690514] | > 30 µM (inactive) | > 30 µM (inactive) | 0.972 µM (active) | > 30 µM (inactive) | > 30 µM (inactive) | > 30 µM (inactive) | > 30 µM (inactive) | > 30 µM (inactive) | > 30 µM (inactive) | – | –
COc1cc2ncnc3c2cc1OCCCCCN(C)Cc1ccc(Br)cc1N3 [JNJ-26483327] | > 30 µM (inactive) | > 30 µM (inactive) | > 30 µM (inactive) | 0.39 µM (active) | > 30 µM (inactive) | > 30 µM (inactive) | > 30 µM (inactive) | > 30 µM (inactive) | > 30 µM (inactive) | – | –
CCc1cc2c(cc1N1CCC(N3CCOCC3)CC1)C(C)(C)c1[nH]c3cc(C#N)ccc3c1C2=O [ALECTINIB] | > 30 µM (inactive) | > 30 µM (inactive) | > 30 µM (inactive) | > 30 µM (inactive) | > 30 µM (inactive) | > 30 µM (inactive) | 29.9 µM (active) | > 30 µM (inactive) | > 30 µM (inactive) | – | –
CNC(=O)c1cccc(-c2ccc3c(N4CCOC[C@@H]4C)nc(N4CCOC[C@@H]4C)nc3n2)c1 [VISTUSERTIB] | > 30 µM (inactive) | > 30 µM (inactive) | > 30 µM (inactive) | > 30 µM (inactive) | > 30 µM (inactive) | > 30 µM (inactive) | > 30 µM (inactive) | > 30 µM (inactive) | > 30 µM (inactive) | – | –
CNC(=O)c1cc(COc2nnc(Nc3ccc(Cl)cc3)c3ccoc23)ccn1 [TELATINIB] | > 30 µM (inactive) | > 30 µM (inactive) | > 30 µM (inactive) | > 30 µM (inactive) | > 30 µM (inactive) | > 30 µM (inactive) | > 30 µM (inactive) | > 30 µM (inactive) | > 30 µM (inactive) | – | –
Cn1c(=O)c(F)c(Nc2ccc(I)cc2F)c2c(=O)n(C[C@@H](O)CO)cnc21 [TAK-733] | > 30 µM (inactive) | > 30 µM (inactive) | – | > 30 µM (inactive) | > 30 µM (inactive) | > 30 µM (inactive) | > 30 µM (inactive) | > 30 µM (inactive) | > 30 µM (inactive) | 5.48 | –
Cc1cc(-c2cc(OC(=O)c3ccccc3)ccc2Cl)cc2nnc(Nc3ccc(OCCN4CCCC4)cc3)nc12 [TG100-801] | > 30 µM (inactive) | > 30 µM (inactive) | > 30 µM (inactive) | 0.192 µM (active) | 1.3 µM (active) | > 30 µM (inactive) | > 30 µM (inactive) | > 30 µM (inactive) | > 30 µM (inactive) | – | –
O=C(NOC[C@H](O)CO)c1ccc(F)c(F)c1Nc1ccc(I)cc1F [MIRDAMETINIB] | > 30 µM (inactive) | > 30 µM (inactive) | 0.808 µM (active) | > 30 µM (inactive) | > 30 µM (inactive) | > 30 µM (inactive) | > 30 µM (inactive) | > 30 µM (inactive) | > 30 µM (inactive) | – | –
N#CCNC(=O)c1ccc(-c2ccnc(Nc3ccc(N4CCOCC4)cc3)n2)cc1 [MOMELOTINIB] | 0.219 µM (active) | 1.28 µM (active) | > 30 µM (inactive) | > 30 µM (inactive) | > 30 µM (inactive) | > 30 µM (inactive) | – | > 30 µM (inactive) | 0.2 µM (active) | – | 6.04
Cc1cc(C(=O)Nc2cc(Oc3ccc4nc(NC(=O)C5CC5)cn4n3)ccc2C)n(C)n1 [TAK-593] | > 30 µM (inactive) | > 30 µM (inactive) | > 30 µM (inactive) | > 30 µM (inactive) | > 30 µM (inactive) | > 30 µM (inactive) | > 30 µM (inactive) | > 30 µM (inactive) | > 30 µM (inactive) | – | –
Cc1c(NC(=O)OC[C@@H]2COCCN2)cn2ncnc(Nc3ccc4c(cnn4Cc4cccc(F)c4)c3)c12 [AC-480] | > 30 µM (inactive) | > 30 µM (inactive) | – | > 30 µM (inactive) | > 30 µM (inactive) | > 30 µM (inactive) | > 30 µM (inactive) | > 30 µM (inactive) | > 30 µM (inactive) | 5.23 | –
C=CCN(/C=C1/C(=O)O[C@H](COC)[C@@]2(C)C1=C(O)C(=O)C1=C2[C@H](OC(C)=O)C[C@]2(C)C(=O)CC[C@@H]12)CC=C [SONOLISIB] | > 30 µM (inactive) | > 30 µM (inactive) | > 30 µM (inactive) | > 30 µM (inactive) | > 30 µM (inactive) | > 30 µM (inactive) | > 30 µM (inactive) | > 30 µM (inactive) | > 30 µM (inactive) | – | –
